{"source": "patent EP4596537A1", "about": "“NOVEL FLUORENE DERIVATIVE COMPOUND AND USE THEREOF” (JD Bioscience Inc., priority 2022, dated 2024)", "key": {"C57BL6J mice": {"test_system": "C57BL6J mice", "test": "Acute kidney ischemic reperfusion (IR) injury animal model", "type": "in vivo", "conditions": "4 µg/kg and 8 µg/kg via tail vein; vs vehicle-treated IR group", "protocol": "Vehicle and Compound 1 (4 µg/kg or 8 µg/kg) were administered to 8-week-old male C57BL6J mice via the tail vein 24 hours before, 1 hour before, and 12 hours after ischemic reperfusion (IR) surgery. The surgery was performed by blocking the artery leading to the kidney to induce ischemia for 37 minutes. The blocked artery was released, and 24 hours later, the mice were anesthetized and autopsied. Other part was used to synthesize cDNA, and a kidney damage marker, NGAL was identified by real-time PCR. And serum was separated from the blood, and creatinine, which is a kidney damage marker in the serum, was examined, and the results are shown in FIG. 3."}, "[1]": {"test_system": "bone marrow-derived dendritic cells (BMDCs)", "test": "Inflammasome formation (IL-1β ELISA) in LPS/ATP-treated dendritic cells", "type": "cell-based, C57BL6 mice", "conditions": "for IL-1β: LPS 500 ng/mL + 5 mM ATP, supernatant; for inhibited IL-1β expression: compared to vehicle control group", "protocol": "Furthermore, to verify the anti-inflammatory effect at a cellular level, bone marrow cells of C57BL6 mice were treated with 20 ng/mL of GM-CSF and IL-4, and 6 days later, bone marrow-derived dendritic cells (BMDCs) were collected. The BMDCs were prepared at 1×10^6 cells/mL and stabilized for one day, and then subsequent experiments were conducted. The above dendritic cells were treated with 500 ng/mL of LPS for 3 hours to prime pro-IL1 β, and then treated with Compound 1 (0 µM, 0.01 µM, 0.1 µM, 1 µM, and 10 µM) for 15 minutes. Next, 5 mM of ATP was treated, which induces inflammasome formation by converting pro-IL1β to IL-1β through pro-IL1β cleavage, and 30 minutes later, the concentration of IL-1β in the supernatant was measured by ELISA, and the results are shown in FIG. 10 and Table 3."}, "BALB/c male mice": {"test_system": "BALB/c male mice", "test": "Graft-versus-host disease (GvHD) animal model", "type": "in vivo", "design": "change in body weight: unit not given here", "conditions": "for body weight of the GvHD in vivo model: compared to control group", "protocol": "5-week-old BALB/c male mice were acclimatized for 1 week and irradiated with 800 cGy of total body irradiation. Then, 5 × 10^6 bone marrow cells derived from C57BL/6J and 1 × 10^7 spleen cells were intravenously injected to establish a GvHD in vivo model (positive control). A syngeneic control group was established in the same manner as above, but BALB/c-derived bone marrow cells were selected as the injected bone marrow cells. Compound 1 Daily was established by daily oral gavage of1 mg/kg of Compound 1 to the GvHD in vivo model. Compound 1 Initial only was established by orally administering 1 mg/kg of Compound 1 to the GvHD in vivo model only for 6 days after model induction. The therapeutic effect of Compound 1 was verified by measuring the change in body weight every 3 days for each control and experimental group established as above, and the results are shown in FIG. 11 and Table 4. On day 14, the production of CD4^+IFNg^+ T cells, which is a major factor inducing GvHD, was measured in the spleens isolated from the mice, and the results are shown in FIG. 12 and Table 5."}, "Mfn2^-/^- MEF cells": {"test_system": "Mfn2^-/^- MEF cells", "test": "Mitochondrial oxygen consumption rate (Seahorse), Charcot-Marie-Tooth disease model", "type": "cell-based, mouse", "conditions": "1 µM, 24 hours", "protocol": "To verify the functional loss due to mutation of MFN2 present in the outer mitochondrial membrane, which is the main cause of Charcot-Marie-Tooth disease, the mitochondrial oxygen consumption rate (OCR) was measured. In detail, Mfn2^+/^+ MEF cells (normal cells), which are mouse embryonic fibroblasts expressing Mfn2, and Mfn2^-/^- MEF cells not expressing Mfn2 were cultured at a density of 1 × 10^4 for 24 hours in a Seahorse XF24 culture dish using a DMEM medium supplemented with 10% FBS and penicillin/streptomycin. The cells were treated with DMSO as a vehicle and Compound 1 (1 µM) and cultured for another 24 hours. The mitochondrial oxygen consumption rate was measured using a […] (Agilent Technologies), and the results are shown in FIG. 13."}, "PDHE1α S293": {"test_system": "PDHE1α S293", "test": "In vitro PDH S293 phosphorylation inhibition (Western blot) in HEK293 cells", "type": "cell-based, human", "conditions": "Homo sapiens, 5 hours", "how_it_was_run": "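HEK293 cells were switched to 0.5% FBS medium and treated with compounds at various concentrations for 5 h. Lysate protein (20 µg) was analysed by Western blot for phospho-PDHE1α S293 alongside total PDHE1α, with inhibition of S293 phosphorylation as the read-out.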"}, "liver cancer cells": {"test_system": "liver cancer cells", "test": "Growth inhibition (Cell Counting Kit-8), liver cancer cells", "type": "cell-based", "conditions": "24 hours, 0.5% FBS", "protocol": "In order to verify the growth inhibitory effect of Compound 1 on various normal and cancer cell lines, 25 types of cell lines listed in Table 7 below were tested. In detail, each cell was seeded at a density of 2 × 10^4 cells/well in a 96-well plate and cultured for 24 hours, and then the medium was replaced with a medium comprising 0.5% (for cancer cells) or 10% (for normal cells) FBS, and Compound 1 was treated at various concentrations. 24 hours later, 10 µL of Cell Counting Kit-8 (Dojindo Molecular Technologies) was added, and 1 hour later, absorbance at 480 nm was measured using a microplate reader (TECAN SPARK), and the results are shown in FIGS. 15 to 21."}}, "data": [{"smiles": "CC(C(=O)NNc1ccc(F)cc1)n1cc(-c2cc(F)cc3c2-c2ccccc2C3(O)C(F)(F)F)cn1", "note": "(stereo not shown) [Example 1, 2-(4-(2-fluoro-9-hydroxy-9-(trifluoromethyl)-9H-fluoren-4-yl)-1H-pyrazol-1-yl)-N'-(4-fluorophenyl)propanehydrazide]", "values": [{"measurement": "RNA expression of NGAL (kidney)", "setting": "C57BL6J mice", "value": "significantly reduced"}, {"measurement": "apoptosis of kidney tissue (TUNEL staining)", "setting": "C57BL6J mice", "value": "significant reduction"}, {"measurement": "renal tubular tissue damage (H&E staining)", "setting": "C57BL6J mice", "value": "significant reduction"}, {"measurement": "serum creatinine", "setting": "C57BL6J mice", "value": "significantly reduced"}, {"measurement": "IL-1β", "setting": "[1]; 0.01 µM", "value": 1131.823, "unit": "pg/mL"}, {"measurement": "IL-1β", "setting": "[1]; 0.1 µM", "value": 1009.825, "unit": "pg/mL"}, {"measurement": "inhibited IL-1β expression", "setting": "[1]; 0.1 µM", "value": "about 83.802%"}, {"measurement": "IL-1β", "setting": "[1]; 1 µM", "value": 907.2636, "unit": "pg/mL"}, {"measurement": "IL-1β", "setting": "[1]; 10 µM", "value": 647.6982, "unit": "pg/mL"}, {"measurement": "inhibited IL-1β expression", "setting": "[1]; 10 µM", "value": "about 53.7504%"}, {"measurement": "change in body weight", "setting": "BALB/c male mice; Daily oral gavage 1 mg/kg, D0", "value": 0}, {"measurement": "change in body weight", "setting": "BALB/c male mice; Daily oral gavage 1 mg/kg, D3", "value": -14.77}, {"measurement": "change in body weight", "setting": "BALB/c male mice; Daily oral gavage 1 mg/kg, D6", "value": -22.95}, {"measurement": "change in body weight", "setting": "BALB/c male mice; Daily oral gavage 1 mg/kg, D9", "value": -19.07}, {"measurement": "change in body weight", "setting": "BALB/c male mice; Daily oral gavage 1 mg/kg, D12", "value": -16.1959}, {"measurement": "body weight of the GvHD in vivo model", "setting": "BALB/c male mice; Daily oral gavage 1 mg/kg", "value": "significantly recovered"}, {"measurement": "change in body weight", "setting": "BALB/c male mice; Initial only: 1 mg/kg oral for 6 days after model induction, D0", "value": 0}, {"measurement": "change in body weight", "setting": "BALB/c male mice; Initial only: 1 mg/kg oral for 6 days after model induction, D3", "value": -11.15}, {"measurement": "change in body weight", "setting": "BALB/c male mice; Initial only: 1 mg/kg oral for 6 days after model induction, D6", "value": -19.01}, {"measurement": "change in body weight", "setting": "BALB/c male mice; Initial only: 1 mg/kg oral for 6 days after model induction, D9", "value": -14.6667}, {"measurement": "change in body weight", "setting": "BALB/c male mice; Initial only: 1 mg/kg oral for 6 days after model induction, D12", "value": -11.99}, {"measurement": "body weight of the GvHD in vivo model", "setting": "BALB/c male mice; Initial only: 1 mg/kg oral for 6 days", "value": "significantly recovered"}, {"measurement": "mitochondrial oxygen consumption rate (OCR)", "setting": "Mfn2^-/^- MEF cells", "value": "markedly restored to a level comparable to that of normal cells"}, {"measurement": "inhibition at 1 µM", "setting": "PDHE1α S293", "value": "≥ 80", "unit": "%"}, {"measurement": "concentration at which viability began to rapidly decrease to 70% or less", "setting": "liver cancer cells", "value": 10, "unit": "µM"}]}]}
